Measured values: PubChem BioAssay (NCI)
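1) Cells in 96-well plates. 2) Compound, 48 h, 5 concentrations. 3) Linear interpolation between surrounding doses. 4) Unreached endpoint = highest concentration. TGI: total growth inhibition.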

Columns and labels:
Assay in all cases: growth of human tumour cells (NCI), 48 h
CAKI-1 renal = test system: CAKI-1 renal
A549 NSCLC = test system: A549 NSCLC
OVCAR-8 ovarian = test system: OVCAR-8 ovarian
U251 CNS = test system: U251 CNS
SF-268 CNS = test system: SF-268 CNS
DU-145 prostate = test system: DU-145 prostate
M14 melanoma = test system: M14 melanoma
OVCAR-3 ovarian = test system: OVCAR-3 ovarian
HOP-92 NSCLC = test system: HOP-92 NSCLC
NCI-H522 lung = test system: NCI-H522 lung

Structure (SMILES) | TGI (CAKI-1 renal) [µM] | TGI (A549 NSCLC) [µM] | TGI (OVCAR-8 ovarian) [µM] | TGI (U251 CNS) [µM] | TGI (SF-268 CNS) [µM] | TGI (DU-145 prostate) [µM] | TGI (M14 melanoma) [µM] | TGI (OVCAR-3 ovarian) [µM] | TGI (HOP-92 NSCLC) [µM] | TGI (NCI-H522 lung) [µM]
CC12CC(C#N)(C#N)C(C#N)(CO1)C(=N)O2 (stereo not drawn) | > 100 | > 100 | > 100 | > 100 | > 100 | > 100 | > 100 | > 100 | > 100 | –
Nc1nc2c(ncn2Cc2ccc(CO)cc2)c(=O)[nH]1 | > 100 | > 100 | > 100 | > 100 | > 100 | > 100 | > 100 | > 100 | > 100 | > 100
Cc1cc(OCc2nnc3n2N=C(c2cc(F)c(Cl)cc2Cl)/C(=C/c2ccc(Cl)cc2)S3)ccc1Cl | 49.9 | – | 39.7 | 43.4 | 51.4 | 36.6 | 65.5 | > 100 | 45.8 | 36.4
CCOC(=O)NC1CN2CCC1CC2 (stereo not drawn) | > 100 | > 100 | > 100 | > 100 | > 100 | > 100 | > 100 | > 100 | > 100 | > 100
CN(CCN(C)C(=S)NN)C(=S)NN | > 100 | > 100 | – | > 100 | > 100 | > 100 | > 100 | > 100 | – | > 100
COc1ccc(C(OCC2OC(n3cc(C)c(=O)[nH]c3=O)CC2n2cc(Cn3cc(Br)c(=O)[nH]c3=O)nn2)(c2ccccc2)c2ccccc2)cc1 (stereo not drawn) | > 100 | > 100 | > 100 | > 100 | > 100 | > 100 | > 100 | > 100 | > 100 | > 100
COc1ccc(/C=N/n2c(-c3ccccc3)n[nH]c2=O)cc1 | > 100 | > 100 | > 100 | > 100 | > 100 | > 100 | > 100 | > 100 | – | –
CC1C[C@]2(C)C(=O)Nc3ccccc3[C@@H]2Nc2ccccc21 (stereo partly drawn) | 74.3 | > 100 | 28.9 | – | > 100 | > 100 | 55.3 | 35.9 | 27.6 | –
COC(=O)C1C=CN(N(C)C)C2=C1C(=O)c1c(O)cccc1C2=O (stereo not drawn) | 5.7 | 6.44 | 7.4 | 11.8 | 17.3 | 2.96 | – | 5.82 | – | 5.95
Cn1c(N)c2c3c(sc2nc1=O)CCCC3 | > 75 | – | > 75 | > 75 | > 75 | > 75 | – | > 75 | – | > 75
CC(C)C[C@H]1[C@@H](OCc2ccccc2)COS(=O)N1[C@H](C)c1ccccc1 (stereo partly drawn) | 95.6 | > 100 | > 100 | 36.5 | > 100 | > 100 | 29.5 | 26 | > 100 | 30.4
Cc1ccsc1/C=N/Nc1ccc2ccccc2n1 | > 100 | > 100 | > 100 | > 100 | > 100 | > 100 | > 100 | > 100 | 82 | –
Cc1ccc(C(=O)N/N=C(\N=Nc2ccccc2[N+](=O)[O-])c2ccc(N(C)C)cc2)cc1 | > 100 | > 100 | > 100 | > 100 | > 100 | – | > 100 | > 100 | > 100 | > 100
COC(=O)C1(OC(=O)Sc2ccccc2)CCN(C)CC1 | 27.8 | > 100 | 52.7 | 40.6 | 62 | > 100 | > 58.6 | > 45.3 | – | 35.1
CC(=C\c1ccccc1)/C=C(\C#N)C(N)=O | > 10 | – | > 10 | > 10 | > 10 | > 10 | > 10 | > 10 | – | > 10
CC(C)C1=C(Cc2ccccc2)C(=O)O/C1=C\c1cc(Cl)c(O)c(Cl)c1 | 29.9 | 50.5 | 42.4 | 31.8 | 48.2 | 30.3 | 35.6 | 27.2 | – | –
COC(=O)c1c(O)ccc2c1c1c(n2Cc2ccc(Cl)cc2Cl)C(=O)c2ccccc2C1 | – | > 100 | > 100 | > 100 | > 100 | > 100 | > 100 | > 100 | – | –
Cc1ccc(-c2cc(-c3ccc(Cl)cc3)nc(/N=C3\C(=O)N(CN4CCOCC4)c4ccc(Cl)cc43)n2)cc1 | 85.5 | > 100 | 55.4 | 36.3 | 88.1 | 47.7 | > 100 | > 100 | 62.2 | 36.7
C#CCN(CC#C)C(=O)C(=O)c1c[nH]c2ccc(OC)cc12 | – | 68.5 | 60.5 | 27.6 | > 100 | > 100 | 34.7 | – | 33.2 | –
CCOC(=O)c1cc(C2(O)CCN(CC(C)CC)C2=O)c(-c2cc(C)no2)[nH]1 (stereo not drawn) | > 100 | > 100 | > 100 | > 100 | > 100 | > 100 | > 100 | > 100 | > 100 | –
CN1CCN(CN2C(=O)C3C4C=CC(C3C2=O)C2C(=O)N(CN3CCN(C)CC3)C(=O)C42)CC1 (stereo not drawn) | > 100 | – | > 100 | > 100 | > 100 | > 31.6 | > 80.6 | > 100 | > 100 | > 59.5
CC(C)(C)C(=O)OC(N)/C=C/c1ccccc1 (stereo not drawn) | > 100 | > 100 | > 100 | > 100 | – | – | > 100 | > 100 | > 100 | > 100
CCOC(=O)c1ccc(NC(=O)O/N=C(/Cl)CCl)cc1 | > 100 | > 100 | > 100 | > 100 | > 100 | > 100 | – | > 100 | – | –
CCc1nc2ccc(N=NN(C)C)cc2[nH]1 | > 100 | > 100 | > 100 | > 100 | > 100 | > 100 | > 100 | > 100 | – | > 100

Structure (SMILES) | TGI (CAKI-1 renal) [µM] | TGI (A549 NSCLC) [µM] | TGI (OVCAR-8 ovarian) [µM] | TGI (U251 CNS) [µM] | TGI (SF-268 CNS) [µM] | TGI (DU-145 prostate) [µM] | TGI (M14 melanoma) [µM] | TGI (OVCAR-3 ovarian) [µM] | TGI (HOP-92 NSCLC) [µM] | TGI (NCI-H522 lung) [µM]
CCSc1[nH]c(Nc2nc(-c3ccccc3)n(-c3ccccc3)n2)c(C(N)=O)c1C(N)=O | > 10 | > 10 | > 10 | – | > 10 | > 10 | > 10 | – | > 10 | –
N#CC1(C#N)C2CCCCC23OC(=N)C1(C#N)C(c1ccccc1)O3 (stereo not drawn) | 24.5 | > 100 | 48.9 | 69.6 | 18.1 | 64.3 | 28.7 | 28.2 | 33.6 | –
O=c1cc(-c2ccccc2)[nH]c2c(S)cccc12 | – | > 100 | > 100 | > 100 | > 100 | > 100 | > 100 | > 100 | > 100 | > 100
CN1C(=O)C(CC=O)(C(C)(C)C)c2ccccc21 (stereo not drawn) | > 100 | > 100 | – | > 100 | > 100 | > 100 | > 100 | > 100 | > 100 | –
O=C1C[C@H]2[C@@H](O1)[C@@H](O)CN1C(=O)c3ccccc3[C@H]21 | > 100 | > 100 | > 100 | > 100 | > 100 | > 100 | > 100 | – | – | > 100
CSc1nncc2[nH]c(C)nc12 | > 100 | > 100 | > 100 | > 100 | – | – | > 100 | > 100 | – | > 100
CN(C)/C=N/n1c2ccccc2c2ccccc21 | 75.8 | > 100 | > 100 | > 100 | > 100 | > 100 | > 100 | > 100 | – | > 100
N#C/C(N)=C(\C#N)NC=NCc1ccccc1 | > 100 | > 100 | > 100 | > 100 | > 100 | > 100 | > 100 | > 100 | – | > 100
COc1ccc(CCN=C2OCc3ccccc32)cc1OC | > 100 | > 100 | > 100 | > 100 | – | > 100 | – | – | > 100 | –
COc1ccc(C(OC(C)=O)C2C(=C(C#N)C#N)c3ccccc3C2=C(C#N)C#N)cc1 (stereo not drawn) | > 100 | – | > 100 | > 100 | > 100 | > 100 | > 100 | 50.6 | > 100 | > 100
CCOC(=O)c1ccc(C(=O)/C(C#N)=C2\CCCN2C)[nH]1 | > 100 | > 100 | > 100 | > 100 | > 100 | > 100 | > 100 | > 100 | – | > 100
O=P(O)(Cc1ccccc1)c1ccccc1-c1ccccc1 | > 100 | > 100 | > 100 | > 100 | > 100 | > 100 | > 100 | – | – | > 100
COc1ccc(CN(Cc2ccc(OC)cc2)C(=O)CC2(O)C=CCC2)cc1 (stereo not drawn) | > 100 | > 100 | > 100 | > 100 | – | > 100 | > 100 | > 100 | > 100 | > 100
CC(=O)Nc1ccc2cc(C)c(=O)[nH]c2n1 | > 100 | > 100 | > 100 | > 100 | > 100 | > 100 | > 100 | – | > 100 | > 100
COc1ccc(-c2c(C#N)c(O)n(NS(=O)(=O)c3ccc(C)cc3)c(=O)c2C#N)cc1 | > 100 | > 100 | > 100 | > 100 | > 100 | – | > 100 | – | > 100 | > 100
Oc1ccc(-c2nc(-c3ccc(F)cc3)c(-c3ccc4ccccc4n3)[nH]2)cc1 | 31.3 | 27 | 32 | 24.4 | 43.8 | 34.8 | 22.9 | 20.3 | – | –
Cn1c(=O)c2c(no[n+]2[O-])c2ccccc21 | 32.4 | > 100 | 28.3 | 34.7 | 59.2 | – | 25.3 | 48.4 | 52.2 | 27.8
CC(CCC#N)(CCC#N)C(=O)CC(O)(C(F)(F)F)C(F)(F)F | 8.32 | 30.1 | 16.6 | 33.2 | > 58.8 | 26.1 | 4.81 | 7.73 | 15.6 | –
C[C@@H]1CCC2[C@@H](C)[C@@H](OCCO[C@H]3OC4O[C@@]5(C)CCC6[C@H](C)CCC([C@H]3C)[C@@]46OO5)OC3O[C@@]4(C)CCC1[C@]32OO4 (stereo partly drawn) | 2.07 | > 100 | > 78.2 | > 100 | > 100 | – | > 100 | – | > 57.7 | > 100
CSc1ncnc2c1cnn2CCCCO | > 100 | > 100 | – | > 100 | > 100 | > 100 | > 100 | > 100 | > 100 | > 100
CC[C@]1(Cc2ccc(OC)c(OC)c2)[C@@H]2C[C@@H](C3OCCO3)ON2O[C@H](OC2CCCC2(c2ccccc2)c2ccccc2)[C@@H]1OC(C)=O (stereo partly drawn) | 82.1 | 79.5 | 46.4 | > 100 | 44.1 | 83.9 | 39.6 | 25.4 | – | 29.7
O=C1/C(=C/c2ccccc2)NC(=S)N1CN1CCOCC1 | – | > 100 | > 100 | > 100 | > 100 | > 100 | > 100 | > 100 | > 100 | –
O=C(NC(CO)Cc1ccc(Oc2cc(CC(CO)NC(=O)OCc3ccccc3)ccc2OC(=O)OCc2ccccc2)cc1)OCc1ccccc1 (stereo not drawn) | > 100 | > 100 | 40.6 | – | 88.9 | 51.3 | 55.1 | 45 | 54.3 | –
